Assay results reported in ChEMBL document CHEMBL3856204, “Chiral 6-aryl-furo[2,3-d]pyrimidin-4-amines as EGFR inhibitors” (Eur J Med Chem, 2016).

Assays:
[1] = target: T1, Inhibitor of nuclear factor kappa-B kinase subunit beta (Homo sapiens) (UniProt O14920); experiment: Inhibition of GST tagged recombinant full length human IKK beta expressed in baculovirus at 500 nM by Z'-LYTE assay
T1 sequence (whole entry): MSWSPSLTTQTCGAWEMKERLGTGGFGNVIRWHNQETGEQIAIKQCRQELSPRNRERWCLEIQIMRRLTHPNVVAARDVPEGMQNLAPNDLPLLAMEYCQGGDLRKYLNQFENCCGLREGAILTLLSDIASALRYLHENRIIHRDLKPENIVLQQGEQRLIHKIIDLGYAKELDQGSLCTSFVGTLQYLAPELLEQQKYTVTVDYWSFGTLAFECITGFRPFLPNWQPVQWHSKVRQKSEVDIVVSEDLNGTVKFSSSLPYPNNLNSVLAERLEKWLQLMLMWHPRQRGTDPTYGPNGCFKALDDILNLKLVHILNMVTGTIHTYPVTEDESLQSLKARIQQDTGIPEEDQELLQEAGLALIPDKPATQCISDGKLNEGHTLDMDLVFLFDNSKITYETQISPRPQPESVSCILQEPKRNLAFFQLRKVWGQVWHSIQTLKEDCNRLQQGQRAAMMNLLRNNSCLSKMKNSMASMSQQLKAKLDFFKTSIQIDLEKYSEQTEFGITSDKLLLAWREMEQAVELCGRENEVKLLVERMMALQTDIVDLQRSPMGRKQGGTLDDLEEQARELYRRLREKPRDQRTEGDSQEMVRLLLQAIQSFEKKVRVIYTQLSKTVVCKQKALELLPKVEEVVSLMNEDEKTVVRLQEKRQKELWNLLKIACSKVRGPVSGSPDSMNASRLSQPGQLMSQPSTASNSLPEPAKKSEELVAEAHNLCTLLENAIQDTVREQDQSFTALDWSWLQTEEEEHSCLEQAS

[2] = target: Focal adhesion kinase 1 (Homo sapiens) (UniProt Q05397); experiment: Inhibition of GST tagged recombinant full length human PTK2 expressed in baculovirus at 500 nM by Z'-LYTE assay
Chain of Focal adhesion kinase 1 (Homo sapiens) (Q05397 2-1052 limits assumed): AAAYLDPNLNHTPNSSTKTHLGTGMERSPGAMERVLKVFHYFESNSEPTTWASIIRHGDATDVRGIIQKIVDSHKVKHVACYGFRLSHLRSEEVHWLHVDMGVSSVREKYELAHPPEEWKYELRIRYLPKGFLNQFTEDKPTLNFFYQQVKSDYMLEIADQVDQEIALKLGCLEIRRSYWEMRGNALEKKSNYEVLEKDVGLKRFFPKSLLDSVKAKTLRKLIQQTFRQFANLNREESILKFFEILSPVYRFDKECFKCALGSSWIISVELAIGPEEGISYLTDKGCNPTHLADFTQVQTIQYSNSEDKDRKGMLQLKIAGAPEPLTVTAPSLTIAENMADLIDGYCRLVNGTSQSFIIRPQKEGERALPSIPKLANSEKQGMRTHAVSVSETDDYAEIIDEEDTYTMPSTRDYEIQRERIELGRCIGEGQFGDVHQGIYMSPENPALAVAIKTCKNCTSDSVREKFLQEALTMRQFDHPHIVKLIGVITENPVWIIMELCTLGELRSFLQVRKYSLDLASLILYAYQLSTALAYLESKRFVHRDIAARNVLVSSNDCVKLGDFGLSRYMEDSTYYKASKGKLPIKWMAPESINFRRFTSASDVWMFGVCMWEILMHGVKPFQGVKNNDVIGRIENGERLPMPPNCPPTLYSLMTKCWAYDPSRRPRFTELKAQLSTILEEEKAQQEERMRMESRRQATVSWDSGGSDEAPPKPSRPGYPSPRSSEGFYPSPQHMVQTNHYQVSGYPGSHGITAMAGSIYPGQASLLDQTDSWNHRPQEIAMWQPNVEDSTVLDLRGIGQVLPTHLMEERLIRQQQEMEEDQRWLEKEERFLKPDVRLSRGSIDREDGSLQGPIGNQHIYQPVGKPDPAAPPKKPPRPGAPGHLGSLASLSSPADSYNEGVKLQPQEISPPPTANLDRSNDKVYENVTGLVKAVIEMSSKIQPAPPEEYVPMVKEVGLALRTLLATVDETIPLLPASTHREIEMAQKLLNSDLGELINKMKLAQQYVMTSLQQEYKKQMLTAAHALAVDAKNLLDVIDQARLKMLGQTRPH

[3] = target: MAP kinase-activated protein kinase 2 (Homo sapiens) (UniProt P49137); experiment: Inhibition of His tagged recombinant full length human MAPKAPK2 expressed in Escherichia coli at 500 nM by Z'-LYTE assay
Chain of MAP kinase-activated protein kinase 2 (Homo sapiens) (P49137 whole entry, looked up, the tested form may be a part): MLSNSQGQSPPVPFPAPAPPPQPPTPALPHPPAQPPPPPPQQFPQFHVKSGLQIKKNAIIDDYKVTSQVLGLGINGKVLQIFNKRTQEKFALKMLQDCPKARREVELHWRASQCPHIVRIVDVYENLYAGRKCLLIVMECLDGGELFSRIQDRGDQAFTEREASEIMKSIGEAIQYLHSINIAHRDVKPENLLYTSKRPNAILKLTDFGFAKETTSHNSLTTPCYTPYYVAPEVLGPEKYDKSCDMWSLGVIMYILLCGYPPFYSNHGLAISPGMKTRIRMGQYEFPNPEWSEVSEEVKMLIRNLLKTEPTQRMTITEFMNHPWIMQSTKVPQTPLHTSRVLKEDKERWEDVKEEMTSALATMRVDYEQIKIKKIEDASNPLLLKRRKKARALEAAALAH

[4] = target: T2, Serine/threonine-protein kinase Nek1 (Homo sapiens) (UniProt Q96PY6); experiment: Inhibition of GST tagged recombinant human NEK1 catalytic domain (1 to 505 residues) expressed in baculovirus at 500 nM by Z'-LYTE assay
T2 sequence (whole entry): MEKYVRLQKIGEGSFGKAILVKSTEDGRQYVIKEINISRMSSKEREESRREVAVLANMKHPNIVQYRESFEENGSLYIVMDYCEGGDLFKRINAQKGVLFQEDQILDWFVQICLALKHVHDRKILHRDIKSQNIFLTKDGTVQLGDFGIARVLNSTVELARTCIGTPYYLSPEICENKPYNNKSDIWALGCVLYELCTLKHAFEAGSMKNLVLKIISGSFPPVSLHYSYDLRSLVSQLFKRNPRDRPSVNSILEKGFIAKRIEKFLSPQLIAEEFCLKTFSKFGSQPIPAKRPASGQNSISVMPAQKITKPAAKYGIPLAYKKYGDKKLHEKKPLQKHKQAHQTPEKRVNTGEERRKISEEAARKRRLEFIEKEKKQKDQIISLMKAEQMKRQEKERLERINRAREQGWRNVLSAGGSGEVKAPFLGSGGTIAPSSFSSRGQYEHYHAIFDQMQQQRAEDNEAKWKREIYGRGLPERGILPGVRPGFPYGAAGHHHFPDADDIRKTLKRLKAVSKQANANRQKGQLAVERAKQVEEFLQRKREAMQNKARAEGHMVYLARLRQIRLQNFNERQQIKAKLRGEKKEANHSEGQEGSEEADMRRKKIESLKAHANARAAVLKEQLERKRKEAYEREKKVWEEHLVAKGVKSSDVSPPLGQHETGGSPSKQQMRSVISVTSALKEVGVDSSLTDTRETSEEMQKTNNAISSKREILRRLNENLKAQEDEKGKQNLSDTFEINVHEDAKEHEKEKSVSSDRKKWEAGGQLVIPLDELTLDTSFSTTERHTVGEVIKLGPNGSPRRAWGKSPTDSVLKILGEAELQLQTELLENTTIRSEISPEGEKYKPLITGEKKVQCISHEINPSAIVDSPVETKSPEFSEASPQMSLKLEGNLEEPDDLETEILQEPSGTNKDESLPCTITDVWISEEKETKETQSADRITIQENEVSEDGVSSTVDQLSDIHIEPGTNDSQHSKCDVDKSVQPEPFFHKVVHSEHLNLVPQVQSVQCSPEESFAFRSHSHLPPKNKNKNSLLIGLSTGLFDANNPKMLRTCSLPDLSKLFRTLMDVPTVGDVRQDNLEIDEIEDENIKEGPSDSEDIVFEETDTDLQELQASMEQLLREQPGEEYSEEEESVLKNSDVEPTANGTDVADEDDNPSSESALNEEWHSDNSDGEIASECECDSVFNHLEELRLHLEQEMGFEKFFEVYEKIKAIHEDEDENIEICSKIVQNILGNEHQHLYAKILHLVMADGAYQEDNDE

[5] = target: Platelet-derived growth factor receptor beta (Homo sapiens) (UniProt P09619); experiment: Inhibition of His tagged recombinant human PDGFRB cytoplasmic domain (558 to 1106 residues) expressed in baculovirus at 500 nM by Z'-LYTE assay
Chain of Platelet-derived growth factor receptor beta (Homo sapiens) (P09619 whole entry, the tested form may be a part): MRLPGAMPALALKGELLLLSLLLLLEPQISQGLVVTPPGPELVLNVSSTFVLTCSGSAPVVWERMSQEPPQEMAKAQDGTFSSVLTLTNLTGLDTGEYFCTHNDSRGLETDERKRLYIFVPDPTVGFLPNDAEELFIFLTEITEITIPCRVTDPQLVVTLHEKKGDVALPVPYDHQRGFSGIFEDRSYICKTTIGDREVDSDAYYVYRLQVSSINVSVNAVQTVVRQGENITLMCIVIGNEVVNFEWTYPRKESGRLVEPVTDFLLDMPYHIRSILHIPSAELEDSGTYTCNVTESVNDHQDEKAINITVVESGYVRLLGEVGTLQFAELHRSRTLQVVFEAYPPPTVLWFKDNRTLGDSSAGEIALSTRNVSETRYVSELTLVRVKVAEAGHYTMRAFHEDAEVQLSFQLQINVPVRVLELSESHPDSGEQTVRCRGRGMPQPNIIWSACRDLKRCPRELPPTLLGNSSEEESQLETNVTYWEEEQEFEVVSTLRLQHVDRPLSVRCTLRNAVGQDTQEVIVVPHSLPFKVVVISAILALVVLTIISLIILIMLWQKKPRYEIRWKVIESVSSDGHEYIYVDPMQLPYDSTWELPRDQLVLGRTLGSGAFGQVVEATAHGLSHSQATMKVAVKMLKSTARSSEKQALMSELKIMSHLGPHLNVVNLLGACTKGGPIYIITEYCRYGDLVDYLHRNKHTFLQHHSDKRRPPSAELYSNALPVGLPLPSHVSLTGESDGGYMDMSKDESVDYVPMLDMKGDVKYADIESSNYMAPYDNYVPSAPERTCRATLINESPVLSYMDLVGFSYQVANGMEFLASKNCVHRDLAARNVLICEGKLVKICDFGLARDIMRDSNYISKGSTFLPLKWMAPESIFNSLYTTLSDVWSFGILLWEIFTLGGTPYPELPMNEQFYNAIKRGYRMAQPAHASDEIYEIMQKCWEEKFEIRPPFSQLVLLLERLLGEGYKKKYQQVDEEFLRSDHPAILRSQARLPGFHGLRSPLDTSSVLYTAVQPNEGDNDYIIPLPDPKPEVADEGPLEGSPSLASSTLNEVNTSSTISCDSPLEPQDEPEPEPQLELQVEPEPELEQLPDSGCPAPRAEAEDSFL

[6] = target: T3, Serine/threonine-protein kinase Chk1 (Homo sapiens) (UniProt O14757); experiment: Inhibition of His tagged recombinant full length human CHK1 expressed in baculovirus at 500 nM by Z'-LYTE assay
T3 sequence (whole entry): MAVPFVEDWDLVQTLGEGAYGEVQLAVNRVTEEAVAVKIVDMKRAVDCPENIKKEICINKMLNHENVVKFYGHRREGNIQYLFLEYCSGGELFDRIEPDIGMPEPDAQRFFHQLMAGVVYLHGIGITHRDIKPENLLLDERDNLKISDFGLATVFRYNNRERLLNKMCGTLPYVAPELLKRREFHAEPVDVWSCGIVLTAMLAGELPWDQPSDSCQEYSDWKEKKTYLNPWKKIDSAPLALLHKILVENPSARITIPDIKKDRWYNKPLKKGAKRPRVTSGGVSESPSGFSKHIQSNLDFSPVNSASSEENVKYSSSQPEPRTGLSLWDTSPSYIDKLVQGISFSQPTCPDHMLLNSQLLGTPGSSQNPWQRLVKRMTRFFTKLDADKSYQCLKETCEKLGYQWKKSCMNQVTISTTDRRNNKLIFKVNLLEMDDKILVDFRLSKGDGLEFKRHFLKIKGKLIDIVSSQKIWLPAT

[7] = target: Serine/threonine-protein kinase PLK1 (Homo sapiens) (UniProt P53350); experiment: Inhibition of His tagged recombinant full length human PLK1 expressed in baculovirus at 500 nM by Z'-LYTE assay
Chain of Serine/threonine-protein kinase PLK1 (Homo sapiens) (P53350 whole entry): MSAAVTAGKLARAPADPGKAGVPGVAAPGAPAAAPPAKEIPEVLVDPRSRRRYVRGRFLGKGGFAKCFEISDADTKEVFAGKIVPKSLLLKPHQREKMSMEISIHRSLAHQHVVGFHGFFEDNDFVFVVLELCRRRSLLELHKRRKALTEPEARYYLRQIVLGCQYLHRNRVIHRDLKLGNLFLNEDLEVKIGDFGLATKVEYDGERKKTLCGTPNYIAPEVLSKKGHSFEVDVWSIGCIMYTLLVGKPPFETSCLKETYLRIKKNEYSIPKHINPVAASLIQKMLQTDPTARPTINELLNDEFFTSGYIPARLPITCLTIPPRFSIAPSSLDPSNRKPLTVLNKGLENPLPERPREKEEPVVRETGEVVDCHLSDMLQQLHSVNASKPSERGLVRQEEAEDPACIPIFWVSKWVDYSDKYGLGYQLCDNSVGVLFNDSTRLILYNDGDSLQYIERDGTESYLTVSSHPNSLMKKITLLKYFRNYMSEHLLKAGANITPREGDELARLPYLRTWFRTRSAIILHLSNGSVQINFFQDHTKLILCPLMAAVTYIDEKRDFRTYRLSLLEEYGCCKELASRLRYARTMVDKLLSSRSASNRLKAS

| inhibition [1] [%] | inhibition [2] [%] | inhibition [3] [%] | inhibition [4] [%] | inhibition [5] [%] | inhibition [6] [%] | inhibition [7] [%] | SMILES |
| --- | --- | --- | --- | --- | --- | --- | --- |
| -5 | -3 | -1 | -8 | -5 | -7 | -9 | C#Cc1cccc(Nc2ncnc3cc(OCCOC)c(OCCOC)cc23)c1 |
| 2 | 7 | 3 | 3 | 10 | -2 | 0 | C[C@@H](Nc1ncnc2oc(-c3ccc(NCCN(C)C)cc3)cc12)c1ccccc1 |
| 3 | 16 | 4 | -1 | 5 | -9 | -5 | C[C@@H](Nc1ncnc2oc(-c3ccc(NCCN4CCCCC4)cc3)cc12)c1ccccc1 |
